Experimental data published in US20040063770A1, “Method for treating Alzheimer's disease” (Warner-Lambert Company, priority 2000, published 2004).
Like-named read-outs stand apart in the source and are kept apart here.

Test system: Aβ secretion from CHO cells transfected with Swedish mutation Amyloid Precursor Protein (CHO-APPsw)
Experiment: Aβ secretion inhibition in CHO-APPsw cells, sandwich ELISA
Format: cell-based
Settings: for IC50: read-out: Effect on Aβ Secretion (Concentration) (IC50)
Protocol: This is an […] assay designed to show the ability of test compounds to […]. CHO cells transfected with human AβPP bearing the Swedish mutation AβPP(CHO-AβPPsw) were treated with a farnesyl transferase inhibitor (FTI) (e.g., compounds from Table 1). The assay was carried out as follows:
CHO cells transfected with Swedish mutation Amyloid Precursor Protein (CHO-APPsw) were maintained in Dulbecco's Modified Eagle Medium (DMEM) media supplemented with nonessential amino acids (NEAA, Gibco-BRL Company) and 10% (v/v) heat inactivated Fetal Calf Serum (Hyclone Company), penicillin and streptomycin (Gibco-BRL).
The polyclonal antibodies were purified on a protein G-Sepharose column prior to use. Biotinylated monoclonal antibody 4G8 which recognizes amino acids 17-24 of Aβ (Senetek plc, St. Louis, Mo., USA) was used as the detection antibody. Alkaline phosphatase-conjugated strepavidin (Zymed Laboratories, San Francisco, Calif., USA) was used to bind the biotinylated detection antibody followed by Attophos (JBL Scientific, St. Luis Obispo, Calif., USA), the substrate for alkaline phosphatase. Fluorescence was measured using a Cytofluor plate reader (Perseptive Biosystems, Framingham, Mass., USA) set at 450 nm excitation and 560 emission. Synthetic Aβ40 and Aβ42 peptides used for standard curves were purchased from California Peptide (Napa, Calif., USA).

[1] = CHO-APPsw cells, serum free media overnight at 37° C., secreted Aβ by sandwich ELISA

Compound | IC50 (CHO) | IC50 [1] | fold decrease in secreted Aβ (transfected CHO cells treated with 10 μM compound)
O=C1CCCc2c1ccc(O[C@H](Cn1ccnc1)c1ccccc1)c2CS(=O)(=O)c1ccccc1 [Compound 10, (S) 5-Benzenesulfonylmethyl-6-(2-imidazol-1-yl-1-phenyl-ethoxy)-3,4-dihydro-2H-naphthalen-1-one] | 25.4 µM | – | –
O=C1CCCc2cc(OCCc3c[nH]cn3)ccc21 [Compound 2, 6-[2-(1H-Imidazol-4-yl)-ethoxy]-3,4-dihydro-2H-naphthalen-1-one] | – | 7.6 µM | –
O=C1CCCc2c1ccc(OCCc1cncn1Cc1ccccc1)c2CCc1ccccc1 [Compound 15, 6-[2-(3-Benzyl-3H-imidazol-4-yl)-ethoxy]-5-phenethyl-3,4-dihydro-2H -naphthalen-1-one; trifluoro-acetate] | 1.5 µM | – | –
O=C1CCCc2cc(O[C@@H](Cn3ccnc3)c3ccccc3)ccc21 [Compound 5, (R) 6-(2-Imidazol-1-yl-1-phenyl-ethoxy)-3,4-dihydro-2H-naphthalen-1-one] | 1.5 µM | – | –
O=C(CN(Cc1ccc(OCc2ccccc2)cc1)C(=O)[C@H](Cc1c[nH]cn1)NC(=O)OCc1ccccc1)NCCOCc1ccccc1 [Compound 19, (S) [1-{(4-Benzyloxy-benzyl)-[(2-benzyloxy-ethylcarbamoyl)-methyl]-carbamoyl}-2-(1H-imidazol-4-yl)ethyl]-carbamic acid benzyl ester] | – | 10 µM | –
CC(C)OCc1c(OC(Cn2ccnc2)c2ccccc2)ccc2c1CCCC2=O (centres unmarked) [Compound 7, 6-(2-Imidazol-1-yl-1-phenyl-ethoxy)-5-isopropoxymethyl-3,4-dihydro-2H-naphthalen-1-one] | 37.9 µM | – | –
Cc1ccc(CN(CC(=O)NCC2(c3ccccc3)CCC2)C(=O)[C@H](Cc2c[nH]cn2)NC(=O)OCc2ccccc2)cc1 [Compound 17, (S) [2-(1H-Imidazol-4-yl)-1-((4-methyl-benzyl)-{[(1-phenyl-cyclobutylmethyl)-carbamoyl]-methyl}-carbamoyl)-ethyl]-carbamic acid benzyl ester] | – | 10 µM | –
O=C1CCCc2c1ccc(O[C@H](Cn1ccnc1)c1ccccc1)c2CNc1ccccc1 [Compound 8, (S) 6-(2-Imidazol-1-yl-1-phenyl-ethoxy)-5-phenylaminomethyl-3,4-dihydro-2H-naphthalen-1-one] | 7.6 µM | – | –
O=C1CCCc2c1ccc(O[C@H](Cn1ccnc1)c1ccccc1)c2CCc1ccccn1 [Compound 12, (S) 6-(2-Imidazol-1-yl-1-phenyl-ethoxy)-5-(2-pyridin-2-yl-ethyl)-3,4-dihydro-2H-naphthalen-1-one] | 12 µM | – | –
O=C(O)CCC(Oc1ccc2c(c1CCc1ccccc1)CCCC2=O)c1ccccc1 (centres unmarked) [Compound 14, 4-(5-Oxo-1-phenethyl-5,6,7,8-tetrahydro-naphthalen-2-yloxy)-4-phenyl-butyric acid] | – | 13.8 µM | –
O=C1/C(=C/c2cccs2)CCc2cc(OC(Cn3ccnc3)c3ccccc3)ccc21 (racemic) [Compound 3, E-(+/−)6-(2-Imidazol-1-yl-1-phenyl-ethoxy)-2-thiophen-2-ylmethylene-3,4-dihydro-2H-naphthalen-1-one] | – | 4.5 µM | –
O=C1CCC(c2ccccc2)c2cc(OC(Cn3ccnc3)c3ccccc3)ccc21 (racemic) [Compound 6, 6-(2-Imidazol-1-yl-1-phenyl-ethoxy)-4-phenyl-3,4-dihydro-2H-naphthalen-1-one racemic] | – | 3.1 µM | –
O=C1CCCc2c1ccc(O[C@H](Cn1ccnc1)c1ccccc1)c2CCc1ccc(F)cc1 [Compound 9, (S) 6-(2-Imidazol-1-yl-1-phenyl-ethoxy)-5-[2-(4-fluorophenyl)ethyl]-3,4-dihydro-2H-naphthalen-1-one] | 4.5 µM | – | –
O=C1CCCc2c1ccc(OC(Cn1ccnc1)c1ccccc1)c2CCc1ccncc1 (centres unmarked) [Compound 13, 6-(2-Imidazol-1-yl-1-phenyl-ethoxy)-5-(2-pyridin-4-yl-ethyl)-3,4-dihydro-2H-naphthalen-1-one] | 11 µM | – | –
CC(C)(CNC(=O)CN(Cc1ccc(OCc2ccccc2)cc1)C(=O)[C@H](Cc1cnc[nH]1)NC(=O)OCc1ccccc1)c1ccccc1 [Compound 16, (S) [1-{(4-Benzyloxy-benzyl)-[(2-methyl-2-phenyl-propycarbamoyl)-methyl]-carbamoyl}-2-(3H-imidazol-4-yl)-ethyl]-carbamic acid benzyl ester] | – | 50 µM | –
O=C1CCCc2c1ccc(O[C@H](Cn1ccnc1)c1ccccc1)c2CCc1ccccc1 [Compound 1, (S) 6-(2-Imidazol-1-yl-1-phenyl-ethoxy)-5-phenethyl-3,4-dihydro-2H-naphthalen-1-one] | 0.7 µM | – | 6.5 fold
CN1C(=O)CC(c2cccc(Cl)c2)c2cc(C(Nc3cncn3C)c3ccc(Cl)cc3)ccc21 (centres unmarked) [Compound 18, 1-Methyl-4-(3-chlorophenyl)-6-[(4-chlorophenyl)-(1-methylimidazol-5-yl)aminomethyl]-2,3-dihydroquinolin-2-one] | – | 6 µM | –
O=C1CCCc2cc(OC(Cn3ccnc3)c3ccc(Cl)cc3)ccc21 (racemic) [Compound 4, 6-[1-(4-Chloro-phenyl)-2-imidazol-1-yl-ethoxy]-3,4-dihydro-2H-napththalen-1-one racemic] | – | 25 µM | –
O=C1CCCc2c1ccc(S[C@H](Cn1ccnc1)c1ccccc1)c2CCc1ccccc1 [Compound 11, (S) 6-(2-Imidazol-1-yl-1-phenyl-ethylsulfanyl)-5-phenethyl-3,4-dihydro-2H-naphthalen-1-one] | – | 1.5 µM | –
